What all share (assay): CXCR6 receptor antagonists, dose response, cell-based, beta-arrestin, DiscoveRx, APJ panel, uHTS hits (AID 624129)
For assay [1], the target named is Apelin receptor (Homo sapiens) (UniProt P35414). As to conditions: CXCR6 beta-arrestin (DiscoveRx) antagonist cell assay, APJ.
Assay [2] addresses Beta-galactosidase (Escherichia coli) (UniProt Q8VNN2). As to conditions: CXCR6 beta-arrestin (DiscoveRx) antagonist cell assay, b-galactosidase.
The target of assay [3] is C-C chemokine receptor type 6 (Homo sapiens) (UniProt P51684). The conditions noted are these: CXCR6 beta-arrestin (DiscoveRx) antagonist cell assay.
The target of assay [4] is C-X-C chemokine receptor type 6 (Homo sapiens) (UniProt O00574). The conditions noted are these: CXCR6 beta-arrestin (DiscoveRx) antagonist cell assay.
Setting [5] is: dose range 1, mean IC50 across replicates.
Setting [6] is: CCR6, dose range 1, mean IC50 across replicates.
Where [7] appears, read: CXCR6, dose range 1, mean IC50 across replicates.
The mark [8] stands for this setting: CXCR6, run 1, dose range 2, at 80 µM (top of the series).

Among the data in PubChem BioAssay AID624129 (Sanford-Burnham Center for Chemical Genomics, 2012) are IC50 and inhibition values, retold here.

Usually IC50 stands for the concentration at which inhibition is half-maximal. By inhibition is commonly meant the relative decrease from the control value, in per cent.

Activity calls are given as the source filed them. The rule behind the calls is not given here.

C-X-C chemokine receptor type 6 (Homo sapiens), sequence (O00574 whole entry, looked up): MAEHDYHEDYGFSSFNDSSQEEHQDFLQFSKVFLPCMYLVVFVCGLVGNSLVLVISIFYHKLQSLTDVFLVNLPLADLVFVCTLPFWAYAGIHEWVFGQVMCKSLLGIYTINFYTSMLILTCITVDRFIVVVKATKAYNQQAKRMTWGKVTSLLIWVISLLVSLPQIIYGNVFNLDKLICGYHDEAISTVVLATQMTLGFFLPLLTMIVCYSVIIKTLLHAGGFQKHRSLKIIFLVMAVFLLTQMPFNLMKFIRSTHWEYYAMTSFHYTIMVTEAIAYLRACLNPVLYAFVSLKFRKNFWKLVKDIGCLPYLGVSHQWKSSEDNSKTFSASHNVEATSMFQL
Beta-galactosidase (Escherichia coli), sequence (Q8VNN2 whole entry, looked up): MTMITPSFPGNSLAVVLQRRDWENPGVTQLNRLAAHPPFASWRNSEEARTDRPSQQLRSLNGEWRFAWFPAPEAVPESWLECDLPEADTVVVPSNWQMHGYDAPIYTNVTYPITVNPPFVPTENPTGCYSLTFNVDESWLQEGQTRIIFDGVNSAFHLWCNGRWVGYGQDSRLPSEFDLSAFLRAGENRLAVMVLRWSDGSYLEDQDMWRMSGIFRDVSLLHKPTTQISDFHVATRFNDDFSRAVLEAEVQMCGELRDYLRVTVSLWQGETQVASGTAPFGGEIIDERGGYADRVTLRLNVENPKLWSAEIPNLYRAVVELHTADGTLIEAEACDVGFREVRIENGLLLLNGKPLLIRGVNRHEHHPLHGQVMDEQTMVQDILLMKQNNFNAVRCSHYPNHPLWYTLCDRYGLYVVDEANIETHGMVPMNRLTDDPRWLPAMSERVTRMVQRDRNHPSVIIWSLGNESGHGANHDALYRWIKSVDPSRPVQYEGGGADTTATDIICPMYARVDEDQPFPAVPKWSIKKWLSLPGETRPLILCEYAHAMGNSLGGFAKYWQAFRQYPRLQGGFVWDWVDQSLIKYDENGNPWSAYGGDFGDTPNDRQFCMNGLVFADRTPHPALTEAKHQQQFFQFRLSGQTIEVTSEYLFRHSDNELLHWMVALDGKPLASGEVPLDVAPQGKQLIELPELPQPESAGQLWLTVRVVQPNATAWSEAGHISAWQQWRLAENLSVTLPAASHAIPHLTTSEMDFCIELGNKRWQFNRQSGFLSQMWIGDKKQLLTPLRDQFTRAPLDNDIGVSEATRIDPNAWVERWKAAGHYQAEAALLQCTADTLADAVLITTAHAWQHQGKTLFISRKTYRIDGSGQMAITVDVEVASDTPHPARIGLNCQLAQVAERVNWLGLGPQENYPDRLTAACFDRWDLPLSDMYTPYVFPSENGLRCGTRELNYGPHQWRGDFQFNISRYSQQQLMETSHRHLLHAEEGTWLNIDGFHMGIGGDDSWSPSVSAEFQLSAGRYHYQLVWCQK

Turning to `CN(O)C(=S)c1ccccc1`, the IC50 was 2.41 µM in assay [1] (dose range 1); 4.68 µM in assay [1] (setting [5]); 6.23 µM in assay [1] (run 2, dose range 1); 5.39 µM in assay [1] (run 3, dose range 1); > 80 µM (inactive) in assay [2] (dose range 1); more than 80 µM in assay [2] (setting [5]). In addition, the half-inhibitory concentration (IC50) in assay [3] (CCR6, dose range 1) was 0.724 µM; in assay [3] (setting [6]), 1.31 µM; in assay [3] (CCR6, run 2, dose range 1), 1.89 µM; in assay [4] (CXCR6, dose range 1), 1.67 µM; in assay [4] (setting [7]), 1.58 µM; in assay [4] (CXCR6, run 2, dose range 1) it was 1.48 µM. In addition, the inhibition in assay [4] (CXCR6, run 1, dose range 2, at 40 µM (top of the series)) is 90.8%.

Turning to `CCC1CCCCN1S(=O)(=O)c1ccc(NC(=O)c2nc(S(C)(=O)=O)ncc2Cl)cc1` (stereo not given), the IC50 in assay [1] (dose range 1) was 7.03 µM; in assay [1] (setting [5]), 6.68 µM; in assay [1] (run 2, dose range 1), 7.18 µM; in assay [1] (run 3, dose range 1), 5.85 µM; in assay [2] (dose range 1), > 80 µM (inactive); in assay [2] (setting [5]), more than 80 µM. Further, the half-maximal inhibitory concentration (IC50) is 5.24 µM in assay [3] (CCR6, dose range 1); 5.53 µM in assay [3] (setting [6]); 5.82 µM in assay [3] (CCR6, run 2, dose range 1); 7.42 µM in assay [4] (CXCR6, dose range 1); 8.97 µM in assay [4] (setting [7]); 10.4 µM in assay [4] (CXCR6, run 1, dose range 2). The IC50 came out at 7.17 µM in assay [4] (CXCR6, run 2, dose range 1) and 10.9 µM in assay [4] (CXCR6, run 2, dose range 2).

Consider `C=C1CC(COc2ccc3c(C)c(Cl)c(=O)oc3c2)(c2ccccc2)OC1=O` (stereo not given), for which the IC50 in assay [1] (dose range 1) was > 80 µM (inactive); in assay [1] (setting [5]), 35.3 µM; in assay [1] (run 2, dose range 1) it was 54.2 µM; in assay [1] (run 3, dose range 1) it was 16.4 µM; in assay [2] (dose range 1), > 80 µM (inactive); in assay [2] (setting [5]), more than 80 µM. For the same compound, the half-inhibitory concentration (IC50) in assay [3] (CCR6, dose range 1) was 0.174 µM; in assay [3] (setting [6]), 1.42 µM; in assay [3] (CCR6, run 2, dose range 1) it was 2.66 µM; in assay [4] (CXCR6, dose range 1) it was 3.92 µM; in assay [4] (setting [7]) it was 3.92 µM; in assay [4] (CXCR6, run 2, dose range 1), more than 80 µM. Further, in assay [4] (setting [8]), the inhibition came out at 55.2%.

As for `COc1ccc(C2CC(c3c(O)n(CCc4ccccc4)c(=O)[nH]c3=O)=NN2)cc1OC` (stereo not given), the IC50 was 10.5 µM in assay [1] (dose range 1); 14.3 µM in assay [1] (setting [5]); 22.1 µM in assay [1] (run 2, dose range 1); 10.4 µM in assay [1] (run 3, dose range 1); 52 µM in assay [2] (setting [5]); 14.8 µM in assay [3] (CCR6, dose range 1). The half-maximal inhibitory concentration (IC50) in assay [3] (setting [6]) was 18 µM; in assay [3] (CCR6, run 2, dose range 1), 21.2 µM; in assay [4] (setting [7]), 14.2 µM; in assay [4] (CXCR6, run 1, dose range 2), 6.37 µM; in assay [4] (CXCR6, run 2, dose range 1), 22.4 µM; in assay [4] (CXCR6, run 2, dose range 2), 8.63 µM. Further, the IC50 entry in assay [2] (dose range 1) was “inactive”; in assay [4] (CXCR6, dose range 1) it was “inactive”.

Turning to `O=[N+]([O-])c1cc2oc3c(c2c(C=NCc2ccccc2)c1O)CCCC3`, the IC50 was 25.5 µM in assay [1] (dose range 1); 25.5 µM in assay [1] (setting [5]); more than 80 µM in assay [1] (run 2, dose range 1); more than 80 µM in assay [1] (run 3, dose range 1); > 80 µM (inactive) in assay [2] (dose range 1); more than 80 µM in assay [2] (setting [5]). Besides, the IC50 in assay [3] (CCR6, dose range 1) is 27.3 µM; in assay [3] (setting [6]), 39.8 µM; in assay [3] (CCR6, run 2, dose range 1) it was 52.2 µM; in assay [4] (setting [7]), 20.9 µM; in assay [4] (CXCR6, run 1, dose range 2), 4.04 µM; in assay [4] (CXCR6, run 2, dose range 1) it was more than 80 µM. In assay [4] (CXCR6, run 2, dose range 2), this compound showed an IC50 of 6.46 µM. For the same compound, the IC50 result in assay [4] (CXCR6, dose range 1) is “inactive”.

For the compound `O=C1C=CC(=O)N1Cc1ccccc1`, the IC50 in assay [1] (dose range 1) is 12 µM; in assay [1] (setting [5]) it was 11 µM; in assay [1] (run 2, dose range 1) it was 11.4 µM; in assay [1] (run 3, dose range 1), 9.67 µM; in assay [2] (dose range 1), > 80 µM (inactive); in assay [2] (setting [5]), more than 80 µM. Further, the IC50 in assay [3] (CCR6, dose range 1) is 6.91 µM; in assay [3] (setting [6]), 7.21 µM; in assay [3] (CCR6, run 2, dose range 1), 7.51 µM; in assay [4] (CXCR6, dose range 1), 10.8 µM; in assay [4] (setting [7]), 8.3 µM; in assay [4] (CXCR6, run 2, dose range 1), 5.84 µM. For the same compound, the inhibition in assay [4] (setting [8]) was 122%.

For the compound `C/C(=N\NC(=O)C(C)Oc1ccc([N+](=O)[O-])cc1)c1ccccn1` (stereo not given), the IC50 is 3.43 µM in assay [1] (dose range 1); 8.09 µM in assay [1] (setting [5]); 3.41 µM in assay [1] (run 2, dose range 1); 17.4 µM in assay [1] (run 3, dose range 1); > 80 µM (inactive) in assay [2] (dose range 1); more than 80 µM in assay [2] (setting [5]). In addition, the IC50 in assay [3] (CCR6, dose range 1) was 2.61 µM; in assay [3] (setting [6]), 3.11 µM; in assay [3] (CCR6, run 2, dose range 1), 3.6 µM; in assay [4] (CXCR6, dose range 1), 6.22 µM; in assay [4] (setting [7]), 3.92 µM; in assay [4] (CXCR6, run 1, dose range 2), 2.75 µM. Besides, the IC50 amounted to 4.5 µM in assay [4] (CXCR6, run 2, dose range 1) and 2.23 µM in assay [4] (CXCR6, run 2, dose range 2).
